Laboratory results as given in patent publication US20250109120A1, “INDOLINE DERIVATIVES FOR TREATMENT AND/OR PREVENTION OF TUMOR OR CELL PROLIFERATIVE AND FIBROSIS DISEASES” (NATIONAL TAIWAN UNIVERSITY, priority 2023, published 2025).
Like-named read-outs stand apart in the source and are kept apart here.

Tests used:
A549 cells [1] = assay: Wound-healing migration assay; format: cell-based, human; conditions: compounds 2 μM, senexin A 5 μM, pirfenidone 1 mM; TGF-β1 10 ng/mL; 24 or 48 h
Method: A549 cells were incubated in six-well plates until reaching 90% confluency, scratched with a pipette tip, and immediately photographed (0 h). Cells were incubated with or without compound k (2 μM), senexin A (5 μM), or pirfenidone (1 mM) for 1 h, then treated with TGF-β1 (10 ng/mL) and allowed to migrate into the wound area for 24 or 48 h, and photographed. Cell migration into the wound was quantified using ImageJ software; the solid line indicates time zero. Quantitative assessment of the mean number of cells in the denuded zone is expressed as the mean±SEM from three independent experiments. **p<0.01 compared to the control group; ##p<0.01 and ###p<0.001 compared to TGF-β1-treated group.
Cells were seeded in six-well plates and cultured to 90% confluency, at which time the cellular monolayer was wounded with a sterile 10-μL pipette tip and washed with culture medium to remove detached cells. Cells were incubated in the presence or absence of test compounds for 24 h and photographed. The wound closure percentages were subsequently determined using ImageJ software (National Institutes of Health, USA).

A549 cells [2] = assay: TGF-β1-induced oxidative stress (MDA, Nox4); format: cell-based, human; conditions: compounds 2 μM, TGF-β1 10 ng/ml 24 h
Method: A549 cells were incubated with compounds k, b, a (2 μM), senexin A (5 μM), or pirfenidone (1 mM) for 1 h, followed by treatment with 10 ng/ml TGF-β1 for a further 24 h. Malondialdehyde (MDA) (FIG. 10A) and Nox4 (FIG. 10B) levels were detected. ***p<0.001 compared to the control group; #p<0.05, ##p<0.01, and ###p<0.001 compared to the TGF-β1-treated group.
An end product of lipid peroxidation, malondialdehyde (MDA), was measured by spectrophotometry at a wavelength of 532 nm using malondialdehyde bis(dimethyl acetal) as the standard as per the assay protocol (Cell Biolabs, USA).

A549 cells [3] = assay: TGF-β1-induced EMT protein expression, western blot; format: cell-based, human; conditions: test compounds 2 μM, senexin A 5 μM, pirfenidone 1 mM; TGF-β1 10 ng/mL
Method: FIGS. 4A-4B show the inhibition of epithelial-to-mesenchymal transition protein expressions by CDK8 inhibitors in human alveolar epithelial cells. […] Cell lysates were subjected to a Western blot analysis using the indicated antibodies. Results are shown as the mean t SEM from three independent experiments. *p<0.05, and ***p<0.001 compared to the control group; #p<0.05, ##p<0.01, and ###p<0.001 compared to the TGF-β1-treated group. […] Cell viabilities were determined by an MTT assay. Results are shown as the mean t SEM of three independent experiments.
(§1) Cells (106) were incubated for 10 min at 4° C. in lysis buffer (20 mM HEPES at pH 7.4, 2 mM EGTA, 50 mM β-glycerophosphate, 0.1% Triton X-100, 10% glycerol, 1 mM DTT, 1 μg/mL of leupeptin, 5 μg/mL of aprotinin, 1 mM phenylmethylsulfonyl fluoride, and 1 mM sodium orthovanadate), scraped off, incubated on ice for an additional 10 min, and centrifuged at 17,000 g for 30 min at 4° C. Protein samples (20 μg) were then electrophoresed on SDS-polyacrylamide gel electrophoresis (PAGE) gels and transferred to a nitrocellulose membrane, which was then blocked by incubation for 30 min at room temperature with 5% bovine serum albumin (BSA) in Tris-buffered saline with 0.1% Tween-20 (TBST). Immunoblotting was performed by overnight incubation at 4° C. with primary antibodies in TBST, followed by incubation for 1 h at room temperature with horseradish peroxidase (HRP)-conjugated secondary antibodies. Bound antibodies were measured using enhanced chemiluminescence (ECL) reagent (GE Healthcare, UK) and exposed to photographic film.

CDK8 [4] = molecular target: T1, CDK8 (Homo sapiens (Human), UniProt P49336); assay: LanthaScreen Eu Binding Assay, Thermo Fisher SelectScreen kinase service; conditions: for inhibition at 10 µM: read-out: CDK8 Inhibition percentage at 10 μM
Method: Compounds were tested for kinase inhibitory activity using the Thermo Fisher SelectScreen service (www.thermofisher.com/selectscreen). For CDK8, the LanthaScreen Eu Binding Assay was used. Briefly, the assay employed utilizes a fluorescent tracer to a given kinase. This is used to detect the addition of an anti-tag antibody. When the tracer and antibody bind to the targeted kinase, the Forster resonance energy transfer is measured. When a kinase inhibitor is added to the assay, the tracer/kinase binding will be disrupted, producing low FRET detection and indicating kinase inhibitory activity. Evaluation of kinase activity of additional kinase targets utilized the LanthaScreen binding assay or the Z′-Lyte activity assay provided by Thermo Fisher SelectScreen service. The IC50 values were determined using sequential doses, and the inhibition curves were provided by Thermo Fisher Scientific.
The fragment-based drug design strategy in this study led to optimized CDK8 inhibitors with promising results. CDK8-inhibitory activities of the compounds (a-n) designed by this fragment-based drug design strategy were tested using the SelectScreen kinase service of ThermoFisher Scientific. The inhibitory effects of the 14 compounds and the referenced compound were tested at a concentration of 10 μM.
Target sequence in this assay (P49336 whole entry, looked up): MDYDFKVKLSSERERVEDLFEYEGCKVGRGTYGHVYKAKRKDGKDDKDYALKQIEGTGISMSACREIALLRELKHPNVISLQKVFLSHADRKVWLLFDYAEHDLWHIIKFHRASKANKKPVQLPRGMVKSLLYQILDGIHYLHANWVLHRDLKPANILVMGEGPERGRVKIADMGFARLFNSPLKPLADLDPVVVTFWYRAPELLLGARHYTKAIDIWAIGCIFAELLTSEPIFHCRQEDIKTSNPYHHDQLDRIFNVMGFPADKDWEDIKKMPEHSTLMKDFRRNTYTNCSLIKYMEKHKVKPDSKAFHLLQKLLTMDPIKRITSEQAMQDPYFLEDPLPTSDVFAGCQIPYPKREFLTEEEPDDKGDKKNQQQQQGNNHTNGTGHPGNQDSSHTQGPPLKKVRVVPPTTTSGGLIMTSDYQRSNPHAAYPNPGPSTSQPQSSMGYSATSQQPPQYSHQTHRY
Target sequence in this assay (P24863 whole entry partner, looked up): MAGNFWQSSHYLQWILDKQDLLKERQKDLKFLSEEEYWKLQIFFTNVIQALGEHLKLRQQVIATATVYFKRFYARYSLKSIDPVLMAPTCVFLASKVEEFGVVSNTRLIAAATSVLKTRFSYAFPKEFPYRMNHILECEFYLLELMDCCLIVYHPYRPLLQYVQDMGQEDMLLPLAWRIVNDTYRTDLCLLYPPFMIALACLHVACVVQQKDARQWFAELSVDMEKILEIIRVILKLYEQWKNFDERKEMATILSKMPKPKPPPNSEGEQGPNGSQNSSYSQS

CDK8 [5] = molecular target: T1, CDK8; conditions: commercial CDK8 inhibitor; cited from earlier work
Target sequence in this assay (P49336 whole entry, looked up, species assumed): as the sequence (P49336 whole entry, looked up) above
Target sequence in this assay (P24863 whole entry partner, looked up, species assumed): as the sequence (P24863 whole entry partner, looked up) above

A549 cells [6] = assay: Nuclear p-Smad3 T179 and RNA polymerase II pS2/S5 after TGF-β1, fractionation and western blot; format: cell-based, human; conditions: compound k 5 μM, senexin A 5 μM, pirfenidone 1 mM; TGF-β1 10 ng/ml 3 h
Method: FIGS. 8A-8B show the inhibitory effects of cellular distributions of TGF-β1-induced p-Smad3 T179, RNA polymerase II pS2/S5, and Smad3 after treatment with compound k. Human alveolar epithelial A549 cells were incubated with compound k (5 μM), senexin A (5 μM), or pirfenidone (1 mM) for 1 h, followed by stimulation with TGF-β1 (10 ng/ml) for 3 h. Protein expressions in the cytoplasmic and nuclear fractions were subjected to a Western blot analysis using the indicated antibodies. α-Tubulin and histone H3 served as loading controls for the cytoplasmic and nuclear fractions, respectively. Results are shown as the mean±SEM of three independent experiments. **p<0.01 and ***p<0.001 compared to the control group; #p<0.05 and ##p<0.01 compared to the TGF-β1-treated group.
as §1
A Nuclear/Cytosol Fractionation Kit (Biovision, USA) was used to separate the cytosolic and nuclear fractions. […]

DU145 cells = assay: LiCl-induced β-catenin signaling, western blot; format: cell-based, human; conditions: LiCl 20 mM; senexin A 10 μM
Method: Inhibitory phosphorylation of GSK3β was evaluated through western blotting. […] Whole-cell lysates were subjected to western blotting with the indicated antibodies. FIGS. 11J-11K show the comparison of basal activities of the Akt/GSK3β axis between PC-3 and DU145 cells. […] The results are shown as the mean±SEM from at least three independent experiments (*p<0.05, **p<0.01, ***p<0.001 vs. control group; #p<0.05, ##p<0.01, and ###p<0.001 vs. relevant control).
The cells were incubated in lysis buffer for 10 min at 4° C., scraped off, incubated on ice for an additional 10 min and then centrifuged at 17,000 g for 30 min at 4° C. Protein samples were electrophoresed on SDS-PAGE gels, transferred to PVDF membranes and blocked with 5% fat-free milk in PBS for 30 min at room temperature. Immunoblotting was performed overnight with primary antibodies in PBS at 4° C., followed by incubation with HRP-conjugated secondary antibodies for 1 h at room temperature. Bound antibodies will be measured using an ECL reagent and exposed to a photographic film. In the immunoprecipitation assay, cell lysates were immunoprecipitated with 1 μg of antibody and A/G agarose beads overnight at 4° C. After washing the precipitated beads three times with 1 mL ice-cold cell lysis buffer, bound immune complexes were separated by 10% SDS-PAGE and analyzed with immunoblotting.

inhibition at 10 µM (CDK8 [4]) [%]	IC50 (CDK8 [4]; read-out: Inhibition of CDK8 IC50) [µM]	SMILES	inhibition of cell migration (A549 cells [1])	TGF-β1-caused oxidative stress (MDA and Nox4 levels) (A549 cells [2])	TGF-β1-triggered EMT protein expressions (A549 cells [3])	IC50 (CDK8 [5]) [µM]	phosphorylation of p-Smad3 T179 and RNA Pol II pSer2/5 (A549 cells [6])	levels of active form of β-catenin and Snail (DU145 cells)
48	–	CC(C)=C1C(=O)Nc2ccc(S(=O)(=O)Nc3ccc(Oc4ccc([N+](=O)[O-])cc4)cc3)cc21 [Compound a, N-(4-(4-Nitrophenoxy)phenyl)-2-oxo-3-(propan-2-ylidene)indoline-5-sulfonamide]	less inhibition	less-potent inhibition	no significant reduction	–	–	–
76	1.57	CC(C)=C1C(=O)Nc2ccc(S(=O)(=O)Nc3ccc(Nc4ccccc4)cc3)cc21 [Compound b, 2-Oxo-N-(4-(phenylamino)phenyl)-3-(propan-2-ylidene)indoline-5-sulfonamide]	less inhibition	less-potent inhibition	slight reduction	–	–	–
–	–	N#Cc1ccc2ncnc(NCCc3ccccc3)c2c1 [Senexin A, reference compound]	–	–	slight inhibition	0.28	less-potent inhibition	reduced the levels
–	–	Cc1ccc(=O)n(-c2ccccc2)c1 [pirfenidone, reference compound]	–	–	slight inhibition	–	less-potent inhibition	–
